Measured values as given in article PMC7078479, “Sulfamoyl Heteroarylcarboxylic Acids as Promising Metallo-β-Lactamase Inhibitors for Controlling Bacterial Carbapenem Resistance” (mBio, 2020).
Where two headings read alike, the source gives them in different places.

Tests used:
[1] = test system: NDM-type MBL-producing Enterobacteriaceae; assay: Susceptibility testing, 14 NDM-type MBL-producing Enterobacteriaceae isolates; assay type: cell-based; settings: 10 μg/ml SFC, NDM-producing Enterobacteriaceae
Method: (§1) MICs were determined via the microdilution method according to the CLSI guidelines ([38]). In brief, 5 × 10^4 bacterial cells were inoculated in 100 μl of cation-adjusted Mueller-Hinton broth (Becton, Dickinson and Company, Franklin Lakes, NJ) containing the β-lactams and appropriately diluted inhibitors. The final concentration of DMSO was maintained at 2% in the assays. The tested plates were then incubated at 35°C for 16 to 20 h. The MIC value was determined as the lowest concentration of tested β-lactams where no bacterial growth was visibly observed. The optical density at 600 nm (OD600) value was measured using a plate reader for drawing the heat maps. The FIC index value was calculated using the following equation: FIC index=MIC of β-lactam with inhibitor/MIC of β-lactam alone+MIC of inhibitor with β-lactam/MIC of inhibitor alone

SFH-1 = assay: In vitro inhibition assay, IPM hydrolysis by SFH-1; assay type: biochemical; settings: even in the presence of 100 μM SFC
Method: (§2) MBL (10 nM) was mixed with the inhibitors and incubated for 5 min at 30°C. IPM was added to reach a concentration of 150 μM, and the velocity of IPM hydrolysis was monitored at 298 nm. The assay was performed at 30°C using 10 mM HEPES (pH 7.5) buffer containing 200 mM NaCl and 50 μg/ml bovine serum albumin (BSA) for IMP-1, NDM-1, VIM-2, and SMB-1. For SFH-1 and L1, another 10 mM HEPES (pH 7.5) buffer containing 200 mM NaCl, 20 μM ZnSO4, and 50 μg/ml BSA was used.

NDM-1 = target: T1, NDM-1 (Klebsiella pneumoniae, UniProt C7C422); assay: Inhibition of IPM hydrolysis by purified NDM-1, Ki by Lineweaver-Burk plots; assay type: biochemical; settings: IPM as substrate, competitive model, mean of three replicates; read-out: Inhibition constant Ki NDM-1
T1 construct: made in house
Method: as §2
(§3) Initial velocities (vo) were measured after varying the concentrations of IPM and inhibitors, and inverse velocities (1/vo) were plotted against inverse IPM concentrations […]. Lineweaver-Burk plots were constructed to obtain the inhibition constant (Ki) with the competitive inhibition model using the SigmaPlot 13 suite (Hulinks).

E. coli DH5α/pBC-TMB-2 = assay: Susceptibility testing, TMB-2-producing E. coli; assay type: cell-based; settings: Escherichia coli
Method: as §1

[2] = test system: IMP-type MBL-producing Enterobacteriaceae; assay: Susceptibility testing, 19 IMP-type MBL-producing Enterobacteriaceae isolates; assay type: cell-based; settings: for Isolates whose MPM MIC decreased to susceptible criteria (MIC ≤1 μg/ml): IMP-producing isolates
Method: as §1

E. coli DH5α/pBC-IMP-1 = assay: Susceptibility and checkerboard testing, IMP-1-producing E. coli; assay type: cell-based, Escherichia coli; settings: for MIC: Escherichia coli
Method: as §1
(§4) Unless noted otherwise, the FIC index was defined as the lowest value among all obtained values. The synergistic effect was defined as the effect observed when the FIC index value was ≤0.5.

[3] = test system: IMP-1-producing E. coli NUBL-24; assay: Mouse infection model, E. coli NUBL-24, survival; assay type: in vivo, mice
Method: (§5) All experiments were approved by the Nagoya University Animal Ethics Committee, and all experiments were performed in a manner that minimized animal suffering. Male CD1 mice (4 weeks old; 20 to 25 g body weight) were purchased from Charles River Laboratories Japan (Yokohama, Japan). E. coli NUBL-24 (blaIMP-1) and K. pneumoniae MS5674 (blaNDM-1 and blaVIM-1) strains were inoculated on LB agar plates and grown for 18 h at 37°C. Bacteria were then scraped from the plates, and their concentration was adjusted to 5 × 10^6 to 1 × 10^7 CFU in saline solution containing 5% mucin; this solution was then i.p. injected into the mice. At 1 and 3 h after infection, saline solution, MPM, inhibitors, and a combination of MPM and inhibitor were i.p. injected. Mice were monitored for 7 days to formulate survival curves, after which they were euthanized by CO2 asphyxiation.

VIM-2 = target: T2, VIM-2 (Escherichia coli, UniProt Q5U7L7); assay: Inhibition of IPM hydrolysis by purified VIM-2, Ki by Lineweaver-Burk plots; assay type: biochemical; settings: IPM as substrate, competitive model, mean of three replicates; read-out: Inhibition constant Ki VIM-2
T2 construct: made in house
Method: as §2, §3

E. coli = assay: Growth inhibition by inhibitor alone; assay type: cell-based, Escherichia coli; settings: at least at 128 μg/ml
Method: as §1

[4] = test system: E. coli BL21(DE3)/pET-SIM-1; assay: Susceptibility testing, SIM-1-producing E. coli; assay type: cell-based; settings: Escherichia coli
Method: as §1

[5] = test system: Pseudomonas aeruginosa clinical isolates; assay: Susceptibility testing, 17 P. aeruginosa clinical isolates; assay type: cell-based
Method: as §1

E. coli DH5α/pBC-VIM-2 = assay: Susceptibility and checkerboard testing, VIM-2-producing E. coli; assay type: cell-based, Escherichia coli; settings: for MIC: Escherichia coli
Method: as §1, §4

[6] = test system: P. aeruginosa PAO1/pME-IMP-1; assay: Susceptibility testing, IMP-1-producing P. aeruginosa PAO1; assay type: cell-based; settings: Pseudomonas aeruginosa
Method: as §1

[7] = test system: P. aeruginosa PAO1/pME-VIM-2; assay: Susceptibility testing, VIM-2-producing P. aeruginosa PAO1; assay type: cell-based; settings: Pseudomonas aeruginosa
Method: as §1

[8] = test system: P. aeruginosa PAO1/pME-NDM-1; assay: Susceptibility testing, NDM-1-producing P. aeruginosa PAO1; assay type: cell-based; settings: Pseudomonas aeruginosa
Method: as §1

[9] = Acute toxicity study in mice; assay type: in vivo; settings: male, CD1, mouse, in vivo, ip, intraperitoneal (i.p.) single injection, read-out: 50% lethal dose (LD50)
Method: as §5
(§6) For acute toxicity studies, mice were i.p. (400 μl/injection) or i.v. (150 μl/injection) administered a single injection of serially diluted SFC. Mortality was then monitored for 7 days.

mice = assay: Acute toxicity study in mice; assay type: in vivo; settings: intravenous (i.v.) single injection, 7 days
Method: as §5, §6

[10] = read-out: MIC of MPM + inhibitor (8 μg/ml)
[11] = read-out: MIC of MPM + inhibitor (32 μg/ml)
[12] = PAO1, read-out: MIC of MPM + inhibitor (10 μg/ml)
[13] = PAO1, read-out: MIC of MPM + inhibitor (50 μg/ml)

T1 sequence (C7C422 29-270 limits assumed): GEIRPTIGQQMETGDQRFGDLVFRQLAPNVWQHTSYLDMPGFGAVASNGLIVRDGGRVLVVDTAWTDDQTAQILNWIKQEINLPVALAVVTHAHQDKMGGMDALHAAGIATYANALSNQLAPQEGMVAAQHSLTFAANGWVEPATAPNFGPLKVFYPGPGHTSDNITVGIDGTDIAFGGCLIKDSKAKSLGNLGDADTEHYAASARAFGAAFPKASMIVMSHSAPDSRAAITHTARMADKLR

Cc1oc(C)c(S(N)(=O)=O)c1C(=O)O [SFC, 2,5-dimethyl-4-sulfamoylfuran-3-carboxylic acid]
Reduction of MPM MIC50 [1]: 8 fold
Inhibition of IPM hydrolyzing activity of SFH-1 (SFH-1): did not inhibit
Ki (NDM-1): 9.82 µM
MIC (E. coli DH5α/pBC-TMB-2; [10]): 0.5 µg/mL
MIC (E. coli DH5α/pBC-TMB-2; [11]): 0.125 µg/mL
Reduction of MPM MIC50 ([2]; 10 μg/ml SFC, IMP-producing Enterobacteriaceae): 128 fold
Isolates whose MPM MIC decreased to susceptible criteria (MIC ≤1 μg/ml) ([2]; addition of 10 μg/ml SFC): 16/19
Isolates whose MPM MIC decreased to susceptible criteria (MIC ≤1 μg/ml) ([2]; addition of 50 μg/ml SFC): 17/19
MIC meropenem + 2 μg/mL compound (E. coli DH5α/pBC-IMP-1; E. coli DH5α/pBC-IMP-1): 0.063 µg/mL
Reduction in MPM MIC (E. coli DH5α/pBC-IMP-1; E. coli DH5α/pBC-IMP-1, 2 μg/ml compound): 16 fold
Reduction in MPM MIC (E. coli DH5α/pBC-IMP-1; E. coli DH5α/pBC-IMP-1, 10 μg/ml compound): 16 fold
MIC (E. coli DH5α/pBC-IMP-1; [10]): 0.031 µg/mL
MIC (E. coli DH5α/pBC-IMP-1; [11]): 0.031 µg/mL
FIC index (E. coli DH5α/pBC-IMP-1; checkerboard with MPM, E. coli DH5α/pBC-IMP-1, lowest value): 0.06
Mice rescued from death at the endpoint ([3]; MPM (0.2 mg/kg)-SFC (100 mg/kg) combination therapy, i.p., 7 days following infection): 90%
Rescue of infected mice by monotherapy ([3]; SFC 100 mg/kg or MPM 0.2 mg/kg i.p. at 1 and 3 h after infection, within 48 h): failed to rescue mice
Ki (VIM-2): 2.81 µM
Growth inhibition by SFC alone (E. coli): did not show growth inhibition
MIC [4, 10]: 2 µg/mL
MIC [4, 11]: 1 µg/mL
Drop of MPM MIC50 ([5]; 10 μg/ml SFC): 2 fold
Drop of MPM MIC50 ([5]; 50 μg/ml SFC): 8 fold
MIC ceftazidime + 2 μg/mL compound (E. coli DH5α/pBC-VIM-2; E. coli DH5α/pBC-VIM-2): 16 µg/mL
Reduction in CAZ MIC (E. coli DH5α/pBC-VIM-2; E. coli DH5α/pBC-VIM-2, 2 μg/ml compound): no reduction
MIC (E. coli DH5α/pBC-VIM-2; read-out: MIC of CAZ + inhibitor (8 μg/ml)): 4 µg/mL
MIC (E. coli DH5α/pBC-VIM-2; read-out: MIC of CAZ + inhibitor (32 μg/ml)): 2 µg/mL
FIC index (E. coli DH5α/pBC-VIM-2; checkerboard with CAZ, E. coli DH5α/pBC-VIM-2, lowest value): 0.31
MIC [6, 12]: 32 µg/mL
MIC [6, 13]: 16 µg/mL
MIC [7, 12]: 32 µg/mL
MIC [7, 13]: 16 µg/mL
MIC [8, 12]: 4 µg/mL
MIC [8, 13]: 4 µg/mL
LD50 at 7 days [9]: > 1000 mg/kg
50% lethal dose (LD50) (mice): 246 mg/kg of body weight
